Measured values as given in patent publication US20260078120A1, “SUBSTITUTED PYRIDOPYRIMIDINONES” (MIRATI THERAPEUTICS, INC., priority 2022, published 2026).
Read-outs that look alike come from different tables or passages of the source.

What was measured:
[1] = system: T47D (PI3Kα H1047R mutant) cells; assay: CellTiter-Glo 2.0 luminescent cell viability assay, 72 hours, T47D cells; assay type: cell-based; conditions: T47D (PI3Kα H1047R mutant) cells, CellTiter-Glo, approximately 72 hours, read-out: T47D (H1047R mutant) Viability IC50
Outline: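 Cells seeded at 1000 per well overnight were dosed with a 10-concentration, 1:4 series starting at 10 µM and incubated ~72 h at 37° C. Viability was read by CellTiter-Glo 2.0 luminescence after 30 min at room temperature. IC50 came from four-parameter fits of percent vehicle control.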

[2] = system: SKBR3 (PI3Kα wild type) cells; assay: CellTiter-Glo 2.0 luminescent cell viability assay, 72 hours, SKBR3 cells; assay type: cell-based; conditions: Homo sapiens, SK-BR-3, 72 h, SKBR3 (PI3Kα wild type) cells, CellTiter-Glo, approximately 72 hours; read-out: SKBR3 (WT) Viability IC50
Outline: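 Viability measured via CTG luminescence following roughly 72 hours of compound exposure at 37° C. Dosing used a 10 um starting concentration diluted 1:4 over 10 points; percent-of-vehicle data fitted with a variable-slope four-parameter model for IC50.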

| IC50 ([1]; Homo sapiens, T47D, 72 h) [nM] | IC50 [2] [nM] | IC50 [1] [nM] | SMILES |
| --- | --- | --- | --- |
| 280 | > 10000 |  | Cc1cc([C@@H](C)Nc2ccccc2C(=O)O)c2nc(N3CCN(c4ccc(C#N)c5ccc(O)cc45)CC3)c(C)c(=O)n2c1 [Example 11-255, (R)-2-((1-(2-(4-(4-cyano-7-hydroxynaphthalen-1-yl)piperazin-1-yl)-3,7-dimethyl-4-oxo-4H-pyrido[1,2-a]pyrimidin-9-yl)ethyl)amino)benzoic acid] |
| 1200 | > 10000 |  | Cc1cc([C@@H](C)Nc2ccccc2C(=O)O)c2nc(NC[C@H]3CCOC3)c(C#N)c(=O)n2c1 [Example 11-193, 2-(((R)-1-(3-cyano-7-methyl-4-oxo-2-((((R)-tetrahydrofuran-3-yl)methyl)amino)-4H-pyrido[1,2-a]pyrimidin-9-yl)ethyl)amino)benzoic acid] |
| 557 | > 10000 |  | Cc1cc([C@@H](C)Nc2ccccc2C(=O)O)c2nc(N3CCc4scnc4C3)c(C#N)c(=O)n2c1 [Example 11-306, (R)-2-((1-(3-cyano-2-(6,7-dihydrothiazolo[4,5-c]pyridin-5(4H)-yl)-7-methyl-4-oxo-4H-pyrido[1,2-a]pyrimidin-9-yl)ethyl)amino)benzoic acid] |
| 3970 | > 10000 |  | Cc1cc([C@@H](C)Nc2ccccc2C(=O)O)c2nc(N3CCC(N(C)C)CC3)c(C)c(=O)n2c1 [Example 11-311, (R)-2-((1-(2-(4-(dimethylamino)piperidin-1-yl)-3,7-dimethyl-4-oxo-4H-pyrido[1,2-a]pyrimidin-9-yl)ethyl)amino)benzoic acid] |
| 4320 | > 10000 |  | Cc1cc(C(C)Nc2ccccc2C(=O)O)c2nc(N3CCc4cnn(C)c4C3)cc(=O)n2c1 (centres unmarked) [Example 11-382, 2-((1-(7-methyl-2-(1-methyl-1,4,5,7-tetrahydro-6H-pyrazolo[3,4-c]pyridin-6-yl)-4-oxo-4H-pyrido[1,2-a]pyrimidin-9-yl)ethyl)amino)benzoic acid] |
| 156 | > 10000 |  | Cc1cc([C@@H](C)Nc2ccccc2C(=O)O)c2nc(N3CC4(CCC4)C3)c(C#N)c(=O)n2c1 [Example 11-323, (R)-2-((1-(3-cyano-7-methyl-4-oxo-2-(azaspiro[3.3]heptan-2-yl)-4H-pyrido[1,2-a]pyrimidin-9-yl)ethyl)amino)benzoic acid] |
| 356 | > 10000 |  | Cc1cc([C@@H](C)Nc2ccccc2C(=O)O)c2nc(N3CCN(c4nc5cc(C(F)(F)F)ccc5s4)CC3)c(C)c(=O)n2c1 [Example 11-435, (R)-2-((1-(3,7-dimethyl-4-oxo-2-(4-(5-(trifluoromethyl)benzo[d]thiazol-2-yl)piperazin-1-yl)-4H-pyrido[1,2-a]pyrimidin-9-yl)ethyl)amino)benzoic acid] |
| 1650 | > 10000 |  | Cc1cc([C@@H](C)Nc2ccc(F)c(F)c2C(=O)O)c2nc(N3CCC(F)(F)CC3)c(C#N)c(=O)n2c1 [Example 11-88, (R)-6-((1-(3-cyano-2-(4,4-difluoropiperidin-1-yl)-7-methyl-4-oxo-4H-pyrido[1,2-a]pyrimidin-9-yl)ethyl)amino)-2,3-difluorobenzoic acid] |
| 3820 | > 10000 |  | Cc1cc([C@@H](C)Nc2ccccc2C(=O)O)c2nc(N3CCCC(O)C3)c(C#N)c(=O)n2c1 (stereo partly drawn) [Example 11-324, 2-(((1R)-1-(3-cyano-2-(3-hydroxypiperidin-1-yl)-7-methyl-4-oxo-4H-pyrido[1,2-a]pyrimidin-9-yl)ethyl)amino)benzoic acid] |
| 145 | > 10000 |  | Cc1cc([C@@H](C)Nc2ccccc2C(=O)O)c2nc(N3CCN(c4cn(C)nc4C(F)(F)F)CC3)c(C#N)c(=O)n2c1 [Example 11-173, (R)-2-((1-(3-cyano-7-methyl-2-(4-(1-methyl-3-(trifluoromethyl)-1H-pyrazol-4-yl)piperazin-1-yl)-4-oxo-4H-pyrido[1,2-a]pyrimidin-9-yl)ethyl)amino)benzoic acid] |
| 634 | > 10000 |  | Cc1cc([C@@H](C)Nc2ccc(C#N)cc2C(=O)O)c2nc(N3Cc4ccccc4C3)c(C)c(=O)n2c1 [Example 11-310, (R)-5-cyano-2-((1-(2-(isoindolin-2-yl)-3,7-dimethyl-4-oxo-4H-pyrido[1,2-a]pyrimidin-9-yl)ethyl)amino)benzoic acid] |
| 249 | > 10000 |  | Cc1cc([C@@H](C)Nc2ccccc2C(=O)O)c2nc(N3CC(F)C3)c(C#N)c(=O)n2c1 [Example 11-113, (R)-2-((1-(3-cyano-2-(3-fluoroazetidin-1-yl)-7-methyl-4-oxo-4H-pyrido[1,2-a]pyrimidin-9-yl)ethyl)amino)benzoic acid] |
| 960 | > 10000 |  | Cc1cc([C@@H](C)Nc2ccc(Cl)nc2C(=O)O)c2nc(N3CCN(c4ccc(C#N)cc4)C[C@@H]3C)c(C#N)c(=O)n2c1 [Example 11-129, 6-chloro-3-(((R)-1-(3-cyano-2-((S)-4-(4-cyanophenyl)-2-methylpiperazin-1-yl)-7-methyl-4-oxo-4H-pyrido[1,2-a]pyrimidin-9-yl)ethyl)amino)picolinic acid] |
| 83.1 | > 10000 |  | Cc1cc([C@@H](C)Nc2ccccc2C(=O)O)c2nc(N3CCC4(CCC(O)C4)CC3)c(C)c(=O)n2c1 (stereo partly drawn) [Example 10-143, 2-(((1R)-1-(2-(2-hydroxy-8-azaspiro[4.5]decan-8-yl)-3,7-dimethyl-4-oxo-4H-pyrido[1,2-a]pyrimidin-9-yl)ethyl)amino)benzoic acid] |
| 192 | > 10000 |  | Cc1cc([C@@H](C)Nc2ccccc2C(=O)O)c2nc(N3CC4CC5CC4C3C5O)c(C)c(=O)n2c1 (stereo partly drawn) [Example 11-22, 2-(((1R)-1-(2-(6-hydroxyhexahydro-3,5-methanocyclopenta[b]pyrrol-1(2H)-yl)-3,7-dimethyl-4-oxo-4H-pyrido[1,2-a]pyrimidin-9-yl)ethyl)amino)benzoic acid] |
|  | 6820 | 1910 | CCc1cc([C@@H](C)Nc2ccccc2C(=O)O)c2nc(N3Cc4ccccc4C3)c(C#N)c(=O)n2c1 [Example 11-328, (R)-2-((1-(3-cyano-7-ethyl-2-(isoindolin-2-yl)-4-oxo-4H-pyrido[1,2-a]pyrimidin-9-yl)ethyl)amino)benzoic acid] |
| 61 | > 10000 |  | Cc1cc([C@@H](C)Nc2ccccc2C(=O)O)c2nc(N3CCC(O)(C(C)C)C3)c(C)c(=O)n2c1 (stereo partly drawn) [Example 10-135, 2-(((1R)-1-(2-(3-hydroxy-3-isopropylpyrrolidin-1-yl)-3,7-dimethyl-4-oxo-4H-pyrido[1,2-a]pyrimidin-9-yl)ethyl)amino)benzoic acid] |
| > 10000 | > 10000 |  | Cc1cc([C@@H](C)Nc2ccnnc2C(=O)O)c2nc(N3CCC(F)(F)CC3)c(C#N)c(=O)n2c1 [Example 11-146, (R)-4-((1-(3-cyano-2-(4,4-difluoropiperidin-1-yl)-7-methyl-4-oxo-4H-pyrido[1,2-a]pyrimidin-9-yl)ethyl)amino)pyridazine-3-carboxylic acid] |
| 65 | > 10000 |  | CCc1cc([C@@H](C)Nc2ccccc2C(=O)O)c2nc(N3CCC(F)(F)CC3)c(C#N)c(=O)n2c1 [Example 10-46, (R)-2-((1-(3-cyano-2-(4,4-difluoropiperidin-1-yl)-7-ethyl-4-oxo-4H-pyrido[1,2-a]pyrimidin-9-yl)ethyl)amino)benzoic acid] |
| 347 | > 10000 |  | Cc1cc([C@@H](C)Nc2ccccc2C(=O)O)c2nc(N3CC(F)(F)C[C@@H]3C)c(C)c(=O)n2c1 [Example 11-126, 2-(((R)-1-(2-((S)-4,4-difluoro-2-methylpyrrolidin-1-yl)-3,7-dimethyl-4-oxo-4H-pyrido[1,2-a]pyrimidin-9-yl)ethyl)amino)benzoic acid] |
| 156 | > 10000 |  | Cc1cc([C@@H](C)Nc2ccccc2C(=O)O)c2nc(N3CC4C(C3)C4(F)F)c(C)c(=O)n2c1 (stereo partly drawn) [Example 11-222, 2-(((1R)-1-(2-(6,6-difluoro-3-azabicyclo[3.1.0]hexan-3-yl)-3,7-dimethyl-4-oxo-4H-pyrido[1,2-a]pyrimidin-9-yl)ethyl)amino)benzoic acid] |
| 1290 | > 10000 |  | Cc1cc([C@@H](C)Nc2ccccc2C(=O)O)c2nc(N3CCN(C(=O)c4ccccc4)CC3)c(C#N)c(=O)n2c1 [Example 11-263, (R)-2-((1-(2-(4-benzoylpiperazin-1-yl)-3-cyano-7-methyl-4-oxo-4H-pyrido[1,2-a]pyrimidin-9-yl)ethyl)amino)benzoic acid] |
| 320 | > 10000 |  | Cc1cc([C@@H](C)Nc2ccccc2C(=O)O)c2nc(N3CCC(F)(F)[C@@H]3C)c(C)c(=O)n2c1 [Example 11-122, 2-(((R)-1-(2-((S)-3,3-difluoro-2-methylpyrrolidin-1-yl)-3,7-dimethyl-4-oxo-4H-pyrido[1,2-a]pyrimidin-9-yl)ethyl)amino)benzoic acid] |
| 408 | > 10000 |  | Cc1cc([C@@H](C)Nc2ccccc2C(=O)O)c2nc(N3CCN(c4ccncc4)CC3)c(C)c(=O)n2c1 [Example 11-441, (R)-2-((1-(3,7-dimethyl-4-oxo-2-(4-(pyridin-4-yl)piperazin-1-yl)-4H-pyrido[1,2-a]pyrimidin-9-yl)ethyl)amino)benzoic acid] |
| 195 | > 10000 |  | Cc1cc([C@H](C)Nc2ccc(Cl)nc2C(=O)O)c2nc(N3CCCCC3)c(C)c(=O)n2c1 [Example 11-357, (S)-6-chloro-3-((1-(3,7-dimethyl-4-oxo-2-(piperidin-1-yl)-4H-pyrido[1,2-a]pyrimidin-9-yl)ethyl)amino)picolinic acid] |
